Test results: PMC3356457 (Nature, 2012)
Read-outs that look alike come from different tables or passages of the source.

Columns and labels:
[1] = target: hKOR E297A (Homo sapiens, UniProt P41145, E297A); assay type: binding
[2] = system: KOR; details: cited from earlier work
[3] = target: KOR (Homo sapiens, UniProt P41145); assay type: cell-based
[4] = cited from earlier work
[5] = cited from earlier work; remark: listed apart in the source
[6] = system: KOR; details: agonist; cited from earlier work
[7] = target: KOR; details: cited from earlier work; remark: listed apart in the source
[8] = system: KOR; details: cited from earlier work; remark: listed apart in the source

Sequence of hKOR E297A (P41145 whole entry E297A): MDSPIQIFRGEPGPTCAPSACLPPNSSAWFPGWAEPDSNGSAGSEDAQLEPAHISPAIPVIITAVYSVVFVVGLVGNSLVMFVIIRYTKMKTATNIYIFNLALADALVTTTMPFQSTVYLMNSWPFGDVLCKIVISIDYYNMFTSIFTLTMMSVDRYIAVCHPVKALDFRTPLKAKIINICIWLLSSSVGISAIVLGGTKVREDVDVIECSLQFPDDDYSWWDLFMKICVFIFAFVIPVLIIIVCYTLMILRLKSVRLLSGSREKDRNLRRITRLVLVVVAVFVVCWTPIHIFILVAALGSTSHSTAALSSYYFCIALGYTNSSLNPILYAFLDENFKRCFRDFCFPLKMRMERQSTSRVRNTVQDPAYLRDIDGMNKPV
Sequence of KOR (Homo sapiens, UniProt P41145) (P41145 whole entry): as the sequence (P41145 whole entry E297A) above, with A297E counted along it

Compound: NC(N)=Nc1ccc2[nH]c3c(c2c1)C[C@@]1(O)[C@H]2Cc4ccc(O)c5c4[C@@]1(CCN2CC1CC1)[C@H]3O5 [GNTI]
- Effect of Glu297Ala mutation on binding [1]: significant drop

Compound: CC(C)[C@@H](CN1CC[C@@](C)(c2cccc(O)c2)[C@@H](C)C1)NC(=O)[C@H]1Cc2ccc(O)cc2CN1 [JDTic, (3R)-7-hydroxy-N-[(1S)-1-(((3R,4R)-4-(3-hydroxyphenyl)-3,4-dimethyl-1-piperidinyl)methyl)-2-methylpropyl]-1,2,3,4-tetrahydro-3-isoquinoline-carboxamide]
- Effect on κ-agonist U50,488-induced antinociception [2]: blocks
- Agonist activity, Gi-mediated (canonical) signaling [3]: devoid of agonist activity
- Blockade of the effects of agonist U69593, Gi-mediated signaling [3]: completely blocked
- Effect on μ-agonist induced analgesia [4]: not antagonizing
- Activity in rodent models of depression, anxiety, stress-induced cocaine relapse, and nicotine withdrawal [5]: robust activity
- Effect of Glu297Ala mutation on binding [1]: did not affect

Compound: COC(=O)[C@@H]1C[C@H](OC(=O)CSC#N)C(=O)[C@H]2[C@@]1(C)CC[C@H]1C(=O)O[C@H](c3ccoc3)C[C@]21C [RB-64, 22-thiocyanatosalvinorin A]
- EC50 [6]: 0.077 nM
- Ki [7]: 0.59 nM
